Laboratory results: patent US7750155B2, “Pyrazinyl hydroxyacrylamide compounds having an inhibitory effect on the activity of histone deacetylase” (Astellas Pharma Inc., priority 2006, dated 2010)

How the values were obtained:
[1] = system: T1, human histone deacetylase partially purified from human T cell leukemia Jurkat cells; test: Test 1: Determination of histone deacetylase inhibitor activity ([3H]acetyl histone deacetylation); assay type: biochemical; settings: partially purified human HDAC from Jurkat cells, [3H]acetyl histone substrate, 25° C., 30 minutes; read-out: Test 1: HDAC inhibitory activity IC50
T1 construct: The human histone deacetylase was partially purified from human T cell leukemia Jurkat cells
Description: Test 1: Determination of Histone Deacetylase Inhibitor Activity
The partial purification of human histone deacetylase, the preparation of [^3H] acetyl histones, and the assay for histone deacetylase activity were performed basically according to the method as proposed by Yoshida et al. as follows.
Partial Purification of Human Histone Deacetylase
The human histone deacetylase was partially purified from human T cell leukemia Jurkat cells. Jurkat cells (5×10^8 cells) were suspended in 40 mL of the HDA buffer consisting of 15 mM potassium phosphate, pH 7.5, 5% glycerol and 0.2 mM EDTA. After homogenization, nuclei were collected by centrifugation (35,000×g, 10 min) and homogenized in 20 mL of the same buffer supplemented with 1 M (NH4)2SO4. The viscous homogenate was sonicated and clarified by centrifugation (35,000×g, 10 min), and the deacetylase was precipitated by raising the concentration of (NH4)2SO4 to 3.5 M. The precipitated protein was dissolved in 10 mL of the HDA buffer and dialyzed against 4 liters of the same buffer. The dialyzate was then loaded onto a DEAE-cellulose (Whatman DE52) column (25×85 mm) equilibrated with the same buffer and eluted with 300 mL of a linear gradient (0-0.6 M) of NaCl. A single peak of histone deacetylase activity appeared between 0.3 and 0.4 M NaCl.
Preparation of [^3H] Acetyl Histone
To obtain [^3H] acetyl-labeled histone as the substrate for the histone deacetylase assay, 1×10^8 cells of Jurkat in 20 mL of RPMI-1640 medium (supplemented with 10% FBS, penicillin (50 units/mL) and streptomycin (50 μg/mL)) were incubated with 300 MBq [^3H] sodium acetate in the presence of 5 mM sodium butyrate for 30 minutes in 5% CO2-95% air atmosphere at 37° C. in a […] flask, harvested into a centrifuge tube (50 mL), collected by centrifugation at 1000 rpm for 10 minutes, and washed once with phosphate-buffered saline. The washed cells were suspended in 15 mL of ice-cold lysis buffer (10 mM Tris-HCl, 50 mM sodium bisulfite, 1% Triton X-100, 10 mM MgCl2, 8.6% sucrose, pH 6.5). After Dounce homogenization (30 stroke), the nuclei were collected by centrifugation at 1000 rpm for 10 minutes, washed 3 times with 15 mL of the lysis buffer, and once with 15 mL of ice-cooled washing buffer (10 mM Tris-HCl, 13 mM EDTA, pH 7.4) successively. The pellet was suspended in 6 mL of ice-cooled water using a mixer, and 68 μl of H2SO4 was added to the suspension to give a concentration of 0.4 N. After incubation at 4° C. for 1 hour, the suspension was centrifuged for 5 minutes at 15,000 rpm, and the supernatant was taken and mixed with 60 mL of acetone. After overnight incubation at −20° C., the coagulated material was collected by microcentrifugation, air-dried, and stored at −80° C.
Assay for Histone Deacetylase Activity
For the standard assay, 10 μl of [^3H] acetyl-labeled histones were added to 90 μl of the enzyme fraction, and the mixture was incubated at 25° C. for 30 minutes. The reaction was stopped by addition of 10 μl of HCl. The released [^3H] acetic acid was extracted with 1 mL of ethyl acetate, and 0.9 mL of the solvent layer was taken into 10 mL of toluene scintillation solution for determination of radioactivity.

[2] = system: splenic cells of Lewis rats (T lymphocyte blastogenesis); test: Test 2: T-cell growth inhibitor activity (T lymphocyte blastogenesis, Concanavalin A, AlamarBlue); assay type: cell-based; settings: Lewis rat splenic cells, Concanavalin A 1 μg/mL, 72 hours, read-out: Test 2: T-cell growth inhibitory activity IC50
Description: Test 2: Determination of T-Cell Growth Inhibitor Activity
The T lymphocyte blastogenesis test was performed in microtiter plates with each well containing 1.5×10^5 splenic cells of Lewis rats in 0.1 mL RPMI-1640 medium supplemented with 10% fetal bovine serum (FBS), […] 2-mercaptoethanol, penicilln (100 units/mL) and streptomycin (100 μg/mL), to which Concanavalin A (1 μg/mL) was added. The cells were incubated at 37° C. in a humidified atmosphere of 5% CO2 for 72 hours. After the culture period, suppressive activities of the test compounds in T lymphocyte blastogenesis were quantified by AlamarBlue (trademark) Assay. The test samples were dissolved in DMSO and further diluted with RPMI-1640 medium and added to the culture. The activities of the test compounds were expressed as IC50.

[3] = system: blood corpuscles (platelet, white blood corpuscle); test: Test 4: Measurement of change rate of blood corpuscles; assay type: in vivo; settings: 4 mg/kg oral once a day for 14 days, male LEW rats, blood 24 hr after last administration
Description: Test 4: Measurement of Change Rate of Blood Corpuscles Experimental drugs were oral administered to rats (male LEW) once a day for continuous 14 days. The blood sample contained heparin and EDTA were collected at 24 hr after last administration, and the number of differential blood corpuscles were measured by auto-hemocytometer (Sysmex).

Cl.Cl.O=C(/C=C/c1cnc(N[C@@H]2CCN(CCc3cccc(F)c3)C2)cn1)NO [Example 1, (2E)-3-[5-({(3R)-1-[2-(3-fluorophenyl)ethyl]-3-pyrrolidinyl}amino)-2-pyrazinyl]-N-hydroxyacrylamide dihydrochloride]
IC50 [1]: 2.3 nM | IC50 [2]: 2.4 nM | decrease rate (%) platelet [3]: 18.3% | decrease rate (%) white blood corpuscle [3]: 43.7%

Cl.Cl.O=C(/C=C/c1cnc(N[C@@H]2CCN(CCc3ccc(F)c(F)c3)C2)cn1)NO [Example 5, (2E)-3-[5-({(3R)-1-[2-(3,4-difluorophenyl)ethyl]-3-pyrrolidinyl}amino)-2-pyrazinyl]-N-hydroxyacrylamide dihydrochloride]
IC50 [1]: 3.3 nM | IC50 [2]: 0.93 nM | decrease rate (%) platelet [3]: 9.4% | decrease rate (%) white blood corpuscle [3]: 40.3%

Cl.Cl.O=C(/C=C/c1cnc(N[C@@H]2CCCN(CCc3cccc(F)c3)C2)cn1)NO [Example 6, (2E)-3-[5-({(3R)-1-[2-(3-fluorophenyl)ethyl]-3-piperidinyl}amino)-2-pyrazinyl]-N-hydroxyacrylamide dihydrochloride]
IC50 [1]: 1.7 nM | IC50 [2]: 0.65 nM | decrease rate (%) platelet [3]: 24.3% | decrease rate (%) white blood corpuscle [3]: 72.2%

COc1ccc(CCN2CC[C@@H](Nc3cnc(/C=C/C(=O)NO)cn3)C2)cc1.Cl.Cl [Example 18, (2E)-N-hydroxy-3-[5-({(3R)-1-[2-(4-methoxyphenyl)ethyl]-3-pyrrolidinyl}amino)-2-pyrazinyl]acrylamide dihydrochloride]
IC50 [1]: 2.2 nM | IC50 [2]: 2.2 nM | decrease rate (%) platelet [3]: 3.4% | decrease rate (%) white blood corpuscle [3]: 31.7%

Cl.Cl.O=C(/C=C/c1cnc(N[C@@H]2CCN(CCc3ccc(Br)cc3)C2)cn1)NO [Example 19, (2E)-3-[5-({(3R)-1-[2-(4-bromophenyl)ethyl]-3-pyrrolidinyl}amino)-2-pyrazinyl]-N-hydroxyacrylamide dihydrochloride]
IC50 [1]: 1.6 nM | IC50 [2]: 1.3 nM | decrease rate (%) platelet [3]: 14.2% | decrease rate (%) white blood corpuscle [3]: 38.1%

Cl.Cl.O=C(/C=C/c1cnc(N[C@@H]2CCN(CCc3ccc(Cl)cc3)C2)cn1)NO [Example 23, (2E)-3-[5-({(3R)-1-[2-(4-chlorophenyl)ethyl]-3-pyrrolidinyl}amino)-2-pyrazinyl]-N-hydroxyacrylamide dihydrochloride]
IC50 [1]: 2 nM | IC50 [2]: 1.7 nM | decrease rate (%) platelet [3]: 18.6% | decrease rate (%) white blood corpuscle [3]: 64.6%

Cl.Cl.O=C(/C=C/c1cnc(N[C@@H]2CCCN(CCC3CCCCC3)C2)cn1)NO [Example 25, (2E)-3-(5-{[(3R)-1-(2-cyclohexylethyl)-3-piperidinyl]amino}-2-pyrazinyl)-N-hydroxyacrylamide dihydrochloride]
IC50 [1]: 1.8 nM | IC50 [2]: 2.2 nM | decrease rate (%) platelet [3]: 6.2% | decrease rate (%) white blood corpuscle [3]: 63.1%
